# From publication PMC11969009 (Nature Communications, 2025)
# Values joined by “and” are separate entries in the source; they are usually repeats but may differ in a detail not shown here. Equal values may be shown once. Read-outs that look alike come from different tables or passages of the source.
# Assays:
# USP10 = USP10 (Homo sapiens, UniProt Q14694); format: biochemical
# SARS-CoV-2 PLpro [1] = biological target: T1, SARS-CoV-2 PLpro (Severe acute respiratory syndrome coronavirus 2, UniProt P0DTD1); assay: biochemical; set-up: inhibition of SARS-CoV-2 PLpro, UbRh dose-response replicate value: unit: %; details: for IC50: IC50 (UbRh) SARS-CoV-2 PLpro
# SARS-CoV PLpro = SARS-CoV PLpro (Severe acute respiratory syndrome coronavirus, UniProt P0C6X7); assay: biochemical; set-up: inhibition of SARS-CoV PLpro, UbRh dose-response replicate value: unit: %
# SARS-CoV-2 PLpro [2] = biological target: T1, SARS-CoV-2 PLpro; assay: biochemical; format: binding
# SARS-CoV-2 PLpro [3] = biological target: T1, SARS-CoV-2 PLpro
# MERS-CoV PLpro = MERS-CoV PLpro (Middle East respiratory syndrome-related coronavirus, UniProt K9N7C7); format: biochemical; set-up: unit: %
# OTUD1 = OTUD1 (Homo sapiens, UniProt Q5VV17); format: biochemical
# Cezanne = Cezanne (Homo sapiens, UniProt Q6GQQ9); format: biochemical
# UCHL3 = UCHL3 (Homo sapiens, UniProt P15374); format: biochemical
# [4] = system: panel of human DUBs (ATXN3, Cezanne, OTUD1, USP10, USP21, UCHL3); format: biochemical
# USP21 = USP21 (Homo sapiens, UniProt Q9UK80); format: biochemical
# ATXN3 = ATXN3 (Homo sapiens, UniProt P54252); format: biochemical
# SARS-CoV-2 PLpro [5] = biological target: T1, SARS-CoV-2 PLpro; assay: cell-based; format: cell-based
# [6] = system: SARS-CoV-2 clinical isolate VIC001; assay: microbe, parasite or virus in culture; format: cell-based; details: Severe acute respiratory syndrome coronavirus 2, Vero, read-out: Antiviral EC50 (plaque assay)
# Cezanne, sequence (Q6GQQ9 whole entry): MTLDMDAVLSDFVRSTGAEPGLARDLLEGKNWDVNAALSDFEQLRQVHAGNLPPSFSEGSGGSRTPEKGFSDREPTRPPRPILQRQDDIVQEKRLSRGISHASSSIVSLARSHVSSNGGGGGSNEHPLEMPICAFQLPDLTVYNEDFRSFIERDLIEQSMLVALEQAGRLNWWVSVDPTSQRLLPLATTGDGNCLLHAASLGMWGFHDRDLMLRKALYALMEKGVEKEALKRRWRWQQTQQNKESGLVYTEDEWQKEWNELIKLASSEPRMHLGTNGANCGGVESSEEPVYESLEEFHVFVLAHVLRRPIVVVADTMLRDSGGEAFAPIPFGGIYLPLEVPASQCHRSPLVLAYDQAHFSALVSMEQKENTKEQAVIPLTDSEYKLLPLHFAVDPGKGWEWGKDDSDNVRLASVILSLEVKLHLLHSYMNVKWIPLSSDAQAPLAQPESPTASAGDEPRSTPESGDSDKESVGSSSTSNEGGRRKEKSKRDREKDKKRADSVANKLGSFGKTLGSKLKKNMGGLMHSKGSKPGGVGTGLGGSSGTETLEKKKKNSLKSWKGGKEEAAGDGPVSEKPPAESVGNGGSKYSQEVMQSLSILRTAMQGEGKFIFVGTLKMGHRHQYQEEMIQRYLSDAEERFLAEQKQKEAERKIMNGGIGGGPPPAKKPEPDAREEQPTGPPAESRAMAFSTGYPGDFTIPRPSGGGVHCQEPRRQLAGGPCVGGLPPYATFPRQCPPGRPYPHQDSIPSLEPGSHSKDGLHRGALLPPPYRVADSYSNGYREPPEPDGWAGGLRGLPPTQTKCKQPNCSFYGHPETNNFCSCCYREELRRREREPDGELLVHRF
# USP10, sequence (Q14694 whole entry): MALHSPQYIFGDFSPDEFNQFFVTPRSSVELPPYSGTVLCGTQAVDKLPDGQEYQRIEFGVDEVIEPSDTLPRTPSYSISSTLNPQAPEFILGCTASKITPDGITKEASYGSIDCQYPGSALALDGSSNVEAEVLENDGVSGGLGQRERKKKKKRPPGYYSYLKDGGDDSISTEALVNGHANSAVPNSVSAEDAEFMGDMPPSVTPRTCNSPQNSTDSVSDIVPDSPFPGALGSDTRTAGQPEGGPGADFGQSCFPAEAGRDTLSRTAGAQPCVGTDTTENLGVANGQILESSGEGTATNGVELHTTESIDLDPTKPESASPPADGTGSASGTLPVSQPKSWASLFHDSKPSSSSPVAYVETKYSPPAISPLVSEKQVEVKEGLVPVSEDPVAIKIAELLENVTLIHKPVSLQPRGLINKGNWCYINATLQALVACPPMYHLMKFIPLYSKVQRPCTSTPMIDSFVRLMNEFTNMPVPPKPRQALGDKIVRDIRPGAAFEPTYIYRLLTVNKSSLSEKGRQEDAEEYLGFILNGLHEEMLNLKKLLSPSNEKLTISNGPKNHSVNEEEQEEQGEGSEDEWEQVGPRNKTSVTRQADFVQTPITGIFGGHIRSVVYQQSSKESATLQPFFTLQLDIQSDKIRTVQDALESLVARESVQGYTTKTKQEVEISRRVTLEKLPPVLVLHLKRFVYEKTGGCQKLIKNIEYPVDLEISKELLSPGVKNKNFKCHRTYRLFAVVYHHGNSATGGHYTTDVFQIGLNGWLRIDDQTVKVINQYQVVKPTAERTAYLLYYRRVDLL
# UCHL3, sequence (P15374 whole entry): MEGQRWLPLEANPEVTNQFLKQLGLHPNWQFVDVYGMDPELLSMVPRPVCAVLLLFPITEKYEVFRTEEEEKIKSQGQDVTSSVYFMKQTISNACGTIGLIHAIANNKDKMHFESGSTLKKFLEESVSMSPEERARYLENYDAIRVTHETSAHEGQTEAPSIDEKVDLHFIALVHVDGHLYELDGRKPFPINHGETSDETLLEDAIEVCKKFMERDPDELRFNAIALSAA
# ATXN3, sequence (P54252 whole entry): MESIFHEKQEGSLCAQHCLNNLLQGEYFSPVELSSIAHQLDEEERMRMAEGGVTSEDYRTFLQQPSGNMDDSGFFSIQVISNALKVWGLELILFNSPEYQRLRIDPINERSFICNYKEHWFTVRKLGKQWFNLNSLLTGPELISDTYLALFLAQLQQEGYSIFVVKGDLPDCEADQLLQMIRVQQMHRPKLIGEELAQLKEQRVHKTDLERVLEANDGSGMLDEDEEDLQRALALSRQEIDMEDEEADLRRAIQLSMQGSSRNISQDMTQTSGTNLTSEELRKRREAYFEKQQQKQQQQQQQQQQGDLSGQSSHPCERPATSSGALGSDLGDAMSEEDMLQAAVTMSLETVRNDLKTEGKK
# MERS-CoV PLpro, sequence (K9N7C7 1482-1803 limits assumed): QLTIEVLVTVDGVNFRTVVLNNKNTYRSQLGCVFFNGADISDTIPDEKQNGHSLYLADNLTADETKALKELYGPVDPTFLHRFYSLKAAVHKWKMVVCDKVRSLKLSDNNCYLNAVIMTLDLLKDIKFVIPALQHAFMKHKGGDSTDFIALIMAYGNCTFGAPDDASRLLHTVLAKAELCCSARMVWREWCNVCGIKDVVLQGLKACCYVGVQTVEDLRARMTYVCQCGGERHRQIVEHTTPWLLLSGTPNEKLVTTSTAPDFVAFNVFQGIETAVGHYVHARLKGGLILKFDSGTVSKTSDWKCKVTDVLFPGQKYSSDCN
# USP21, sequence (Q9UK80 whole entry): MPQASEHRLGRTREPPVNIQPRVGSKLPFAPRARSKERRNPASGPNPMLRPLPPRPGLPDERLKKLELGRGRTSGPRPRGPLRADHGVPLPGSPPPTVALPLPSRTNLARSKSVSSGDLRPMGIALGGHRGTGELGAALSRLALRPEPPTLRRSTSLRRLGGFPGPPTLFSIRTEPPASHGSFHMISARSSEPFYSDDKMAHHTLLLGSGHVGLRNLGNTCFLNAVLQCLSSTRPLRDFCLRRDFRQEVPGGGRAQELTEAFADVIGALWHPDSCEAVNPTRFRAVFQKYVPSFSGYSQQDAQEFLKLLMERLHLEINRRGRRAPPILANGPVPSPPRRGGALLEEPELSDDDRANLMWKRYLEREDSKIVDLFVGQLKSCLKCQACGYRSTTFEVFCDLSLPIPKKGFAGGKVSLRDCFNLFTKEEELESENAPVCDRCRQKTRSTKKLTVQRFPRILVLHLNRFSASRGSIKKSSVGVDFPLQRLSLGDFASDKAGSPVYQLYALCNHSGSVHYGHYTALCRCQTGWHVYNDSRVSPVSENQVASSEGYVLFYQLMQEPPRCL
# OTUD1, sequence (Q5VV17 whole entry): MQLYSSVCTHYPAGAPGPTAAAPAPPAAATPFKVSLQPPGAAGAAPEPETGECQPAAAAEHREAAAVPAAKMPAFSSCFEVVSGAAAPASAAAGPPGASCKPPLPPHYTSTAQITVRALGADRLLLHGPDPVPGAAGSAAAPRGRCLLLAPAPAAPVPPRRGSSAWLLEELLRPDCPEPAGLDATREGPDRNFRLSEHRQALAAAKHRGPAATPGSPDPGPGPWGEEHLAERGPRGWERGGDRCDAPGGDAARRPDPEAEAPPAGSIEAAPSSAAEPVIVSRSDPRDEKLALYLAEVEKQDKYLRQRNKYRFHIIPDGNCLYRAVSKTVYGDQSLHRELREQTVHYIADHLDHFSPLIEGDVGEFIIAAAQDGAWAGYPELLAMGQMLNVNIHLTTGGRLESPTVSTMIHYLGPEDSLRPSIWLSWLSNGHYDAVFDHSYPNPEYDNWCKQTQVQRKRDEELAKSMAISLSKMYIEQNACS
compound,measurement,setting,value
COc1ccc2cc(C(=O)C3CCCN(C4CCCC4)C3)ccc2c1 (centres unmarked) [WEHI-P1],"inhibition of USP10, UbRh dose-response replicate value",USP10,-17.9764 and -33.546 and -1.777 and -1.005 and -2.268 and -5.196 and 1.437 and 7.331 and 6.946 and -2.385 and 10.5944 and 12.4488 and -3.943 and -14.76 and 8.848 and 13.2594 and -3.1801
same,"inhibition of USP10, UbRh dose-response replicate value",USP10; Conc 0.00498 µM,10.1443 and 12.7446 and 2.857 and 1.607
same,"inhibition of USP10, UbRh dose-response replicate value",USP10; Conc 0.0149 µM,1.87 and 11.8374 and 1.723 and 2.761
same,"inhibition of USP10, UbRh dose-response replicate value",USP10; Conc 0.0448 µM,5.874 and 6.2633 and -3.914
same,"inhibition of USP10, UbRh dose-response replicate value",USP10; Conc 3.63 µM,-1.745 and -4.256 and -2.239 and 0.7005
same,"inhibition of USP10, UbRh dose-response replicate value",USP10; Conc 98 µM,-22.6046 and 5.737 and 3.4
same,"inhibition of SARS-CoV-2 PLpro, UbRh dose-response replicate value",SARS-CoV-2 PLpro [1]; Conc 0.00498 µM,-13.6732 and 2.3131 and -7.154 and -11.0795 and 7.963 and 4.4501 and -10.0607 and -6.545 and -6.343 and -0.9072 and -6.992 and -7.263 and -7.665
same,"inhibition of SARS-CoV-2 PLpro, UbRh dose-response replicate value",SARS-CoV-2 PLpro [1]; Conc 0.0149 µM,-0.6879 and 3.256 and -8.137 and -12.3628 and 2.155 and 5.8571 and -3.891 and -5.469 and -7.734 and -5.926 and -7.3449
same,"inhibition of SARS-CoV-2 PLpro, UbRh dose-response replicate value",SARS-CoV-2 PLpro [1]; Conc 0.0448 µM,1.291 and 3.348 and -5.506 and -4.578 and 2.528 and 6.172 and -28.1035 and -26.7808 and -16.0105 and -8.021 and -5.978 and -3.428 and -7.448
same,"inhibition of SARS-CoV-2 PLpro, UbRh dose-response replicate value",SARS-CoV-2 PLpro [1]; Conc 3.63 µM,55.1403 and 49.1297 and 72.2398 and 55.1118 and 68.8818 and 68.3038 and 70.3435 and 68.1584 and 58.3924 and 61.1283 and 62.8891 and 58.2582 and 68.987
same,"inhibition of SARS-CoV-2 PLpro, UbRh dose-response replicate value",SARS-CoV-2 PLpro [1]; Conc 98 µM,124.948 and 118.973 and 118.719 and 93.4483 and 92.6536 and 95.3254 and 94.6236 and 97.9546 and 83.9689 and 107.904 and 110.814 and 103.242 and 108.864
same,IC50,SARS-CoV-2 PLpro [1],2600 nM
same,IC50,SARS-CoV-2 PLpro [1]; Supplementary Fig. 2b,2600 nM
same,"inhibition of SARS-CoV PLpro, UbRh dose-response replicate value",SARS-CoV PLpro; Conc 3.63 µM,43.26 and 41.4233 and 40.1519 and 56.4827 and 56.7648 and 53.2219
same,inhibition at 3.63 µM,"SARS-CoV PLpro; Conc 3.63 µM, read-out: inhibition of SARS-CoV PLpro, UbRh dose-response replicate value",43.3%
same,"inhibition of SARS-CoV PLpro, UbRh dose-response replicate value",SARS-CoV PLpro; Conc 98 µM,89.3568 and 87.1144 and 87.3043 and 96.6611 and 96.2974 and 95.7026 and 96.1294
same,inhibition at 98 µM,"SARS-CoV PLpro; Conc 98 µM, read-out: inhibition of SARS-CoV PLpro, UbRh dose-response replicate value",89.2%
same,inhibition at […],"SARS-CoV PLpro; read-out: inhibition of SARS-CoV PLpro, UbRh dose-response replicate value",84.6% and 69.7%
same,Kd,SARS-CoV-2 PLpro [2],8300 nM
same,Molar Mass (kDa),SARS-CoV-2 PLpro [3],32.7945 kDa and 33.2145 kDa and 33.2745 kDa
same,observed molar mass of PLpro (SEC-MALS),SARS-CoV-2 PLpro [3],34.9 kDa
same,"inhibition of MERS-CoV PLpro, UbRh dose-response replicate value",MERS-CoV PLpro; Conc 0.00498 µM,-4.614 and -3.364 and 0.3636 and -5.453 and 6.667 and 6.005 and 3.997 and 2.909
same,"inhibition of MERS-CoV PLpro, UbRh dose-response replicate value",MERS-CoV PLpro; Conc 0.0149 µM,-3.576 and -5.738 and -4.053 and -6.88 and 8.95 and 6.88 and 9.641 and 2.2309
same,"inhibition of MERS-CoV PLpro, UbRh dose-response replicate value",MERS-CoV PLpro; Conc 0.0448 µM,-7.082 and -11.2097 and -12.434 and -8.665 and 6.324 and 5.9119 and 5.395 and 2.288
same,"inhibition of MERS-CoV PLpro, UbRh dose-response replicate value",MERS-CoV PLpro; Conc 3.63 µM,-1.223 and -11.7007 and -12.14 and -8.237 and 5.5159 and 6.719
same,"inhibition of MERS-CoV PLpro, UbRh dose-response replicate value",MERS-CoV PLpro; Conc 98 µM,-14.4158 and -18.412 and -13.4114 and -9.9342 and 9.6505 and 10.1326 and 6.766 and 4.38
same,"inhibition of OTUD1, UbRh dose-response replicate value",OTUD1,-10.6037 and -11.2887 and -9.792 and -7.833 and -12.7647 and -0.9075 and 2.163 and -5.7654 and -7.285 and -0.8912 and -5.258 and -7.97 and -1.274 and -2.017 and -4.922 and 1.155 and -8.198 and 3.097 and -7.799 and -6.802
same,"inhibition of OTUD1, UbRh dose-response replicate value",OTUD1; Conc 0.00498 µM,-2.098 and -3.857
same,"inhibition of OTUD1, UbRh dose-response replicate value",OTUD1; Conc 0.0149 µM,0.5359 and 5.168 and -4.672 and 0.608
same,"inhibition of OTUD1, UbRh dose-response replicate value",OTUD1; Conc 0.0448 µM,0.07106 and -1.381 and -0.3944 and -8.021
same,"inhibition of OTUD1, UbRh dose-response replicate value",OTUD1; Conc 3.63 µM,-3.7862 and -2.718 and -1.038 and -8.072
same,"inhibition of OTUD1, UbRh dose-response replicate value",OTUD1; Conc 98 µM,-27.4599 and -27.4028
same,"inhibition of Cezanne, UbRh dose-response replicate value",Cezanne,-18.912 and -15.6278 and -2.351 and 1.9841 and -10.3668 and -26.3356 and -4.177 and -7.241 and -8.329 and -15.5113 and -9.927 and -0.3728 and -12.3899 and 0.2487 and -4.422 and -3.858 and -10.5494 and -3.083 and 1.0161 and -4.6404
same,"inhibition of Cezanne, UbRh dose-response replicate value",Cezanne; Conc 0.00498 µM,-5.218 and -11.645 and -1.408 and -0.02766
same,"inhibition of Cezanne, UbRh dose-response replicate value",Cezanne; Conc 0.0149 µM,-1.15 and -11.2131 and -3.066 and -2.486
same,"inhibition of Cezanne, UbRh dose-response replicate value",Cezanne; Conc 0.0448 µM,-8.614 and -15.6484 and -3.285 and 0.7467
same,"inhibition of Cezanne, UbRh dose-response replicate value",Cezanne; Conc 3.63 µM,-15.9321 and -15.0246 and -5.238 and -9.8
same,"inhibition of Cezanne, UbRh dose-response replicate value",Cezanne; Conc 98 µM,-30.6124 and -29.2216 and 3.466 and 11.4705
same,"inhibition of UCHL3, UbRh dose-response replicate value",UCHL3,-15.7962 and -10.6437 and -3.089 and -8.07 and -1.79 and -9.314 and -4.512 and -11.432 and -8.325 and -0.3429 and -5.346 and 2.661 and -3.761 and -0.9211 and -0.1651 and 0.1836 and -9.635 and -0.5542 and -7.392
same,"inhibition of UCHL3, UbRh dose-response replicate value",UCHL3; Conc 0.00498 µM,-2.717 and -5.843 and -1.232 and -3.133
same,"inhibition of UCHL3, UbRh dose-response replicate value",UCHL3; Conc 0.0149 µM,-3.556 and -7.101 and -2.8889 and -5.9018
same,"inhibition of UCHL3, UbRh dose-response replicate value",UCHL3; Conc 0.0448 µM,-13.5671 and -9.936 and 2.559 and -5.235
same,"inhibition of UCHL3, UbRh dose-response replicate value",UCHL3; Conc 3.63 µM,-2.824 and -12.2743 and -7.514 and -7.892
same,"inhibition of UCHL3, UbRh dose-response replicate value",UCHL3; Conc 98 µM,-24.2494 and -16.3148 and -12.8948 and -13.0616
same,cross-reactivity in a panel of human DUBs,[4],no cross-reactivity
same,"inhibition of USP21, UbRh dose-response replicate value",USP21,-17.3591 and -12.2032 and -18.6472 and -15.4853 and -14.4522 and -19.2052 and -17.9515 and -18.065 and -8.946 and -2.6161 and -10.7527 and -20.9333 and -7.844 and -9.819 and -13.8068 and -21.9255 and -4.154 and -2.302 and -19.2663 and -19.4961
same,"inhibition of USP21, UbRh dose-response replicate value",USP21; Conc 0.00498 µM,-6.669 and -13.4551 and -20.5516 and -18.4137
same,"inhibition of USP21, UbRh dose-response replicate value",USP21; Conc 0.0149 µM,-7.696 and -8.6697 and -11.755 and -9.346
same,"inhibition of USP21, UbRh dose-response replicate value",USP21; Conc 0.0448 µM,-2.649 and -22.6918 and -12.9296
same,"inhibition of USP21, UbRh dose-response replicate value",USP21; Conc 3.63 µM,-16.692 and -5.223 and -23.134 and -16.0626
same,"inhibition of USP21, UbRh dose-response replicate value",USP21; Conc 98 µM,-13.9863 and -21.5031 and -20.8818 and -12.5688
same,"inhibition of ATXN3, UbRh dose-response replicate value",ATXN3,-8.641 and -11.1993 and -4.869 and 4.344 and -19.3823 and -18.001 and -0.7368 and -2.308 and -5.209 and -10.7506 and -7.279 and -8.7353 and -8.48 and -12.1184 and -9.5356 and 0.5603 and -15.7867 and -11.4036 and -7.524
same,"inhibition of ATXN3, UbRh dose-response replicate value",ATXN3; Conc 0.00498 µM,-12.0566 and -16.4021 and -4.426 and -13.5708
same,"inhibition of ATXN3, UbRh dose-response replicate value",ATXN3; Conc 0.0149 µM,-11.0193 and -9.528 and -12.1815 and -14.805
same,"inhibition of ATXN3, UbRh dose-response replicate value",ATXN3; Conc 0.0448 µM,-8.047 and -9.745 and -7.569 and -8.486
same,"inhibition of ATXN3, UbRh dose-response replicate value",ATXN3; Conc 3.63 µM,-16.703 and -12.2662 and -13.9462 and -9.635
same,"inhibition of ATXN3, UbRh dose-response replicate value",ATXN3; Conc 98 µM,-16.0742 and -15.5502
same,EC50,SARS-CoV-2 PLpro [5],> 20000 nM
same,EC50,[6],> 2000 nM
